Assay results reported in ChEMBL document CHEMBL4346704, “Novel symmetric bis-benzimidazoles: Synthesis, DNA/RNA binding and antitrypanosomal activity” (Eur J Med Chem, 2019).
Calls of active or inactive are those of the source. No cut-off for these calls is given here.

Legend:
[1] = Binding affinity to polyA-polyU dsRNA (unknown origin) assessed as change in melting temperature at 0.1 ratio of compound to RNA by spectrophotometric analysis; type: nucleic-acid assay
[2] = system: Calf thymus DNA; test: Binding affinity to calf thymus DNA assessed as conformational change by circular dichroism analysis; type: nucleic-acid assay; conditions: Bos taurus
[3] = Ratio of compound concentration to polynucleotide phosphate concentration for binding affinity to polyA-polyU dsRNA (unknown origin); type: nucleic-acid assay
[4] = system: Calf thymus DNA; test: Binding affinity to calf thymus DNA assessed as hypochromic effect by UV-vis spectrophotometric method relative to control; type: nucleic-acid assay; set-up: concentration or dose not given beside the values; conditions: Bos taurus
[5] = system: Poly(dA-dU)oligonucleotide; test: (§1) Binding affinity to polyA-polyU dsRNA (unknown origin) assessed as binding constant by UV-vis spectrophotometric method; type: nucleic-acid assay
[6] = system: Calf thymus DNA; test: Binding affinity to calf thymus DNA assessed as change in melting temperature at compound to calf thymus DNA polynucleotide ratio of 0.1 by spectrophotometric analysis; type: nucleic-acid assay; conditions: Bos taurus
[7] = system: L6; test: Cytotoxicity against rat L6 cells incubated for 6 days by resazurin based fluorescence assay; type: cell-based; conditions: L6, 144 h
[8] = system: Trypanosoma brucei; test: Antitrypanosomal activity against Trypanosoma brucei 221 incubated for 48 hrs by resazurin based fluorescence assay; type: functional, organism-based; conditions: Trypanosoma brucei, 221, 48 h
[9] = system: Poly(dA-dU)oligonucleotide; test: Binding affinity to polyA-polyU dsRNA (unknown origin) assessed as conformational change by circular dichroism analysis; type: nucleic-acid assay
[10] = system: Calf thymus DNA; test: Binding affinity to calf thymus DNA assessed as change in melting temperature at compound to calf thymus DNA polynucleotide ratio of 0.3 by spectrophotometric analysis; type: nucleic-acid assay; conditions: Bos taurus
[11] = system: Poly(dA-dU)oligonucleotide; test: Binding affinity to polyA-polyU dsRNA (unknown origin) assessed as change in melting temperature at 0.5 ratio of compound to RNA by spectrophotometric analysis; type: nucleic-acid assay
[12] = Binding affinity to polyA-polyU dsRNA (unknown origin) assessed as hypochromic effect by UV-vis spectrophotometric method relative to control; type: nucleic-acid assay; set-up: concentration or dose not given beside the values
[13] = system: Calf thymus DNA; test: Ratio of compound concentration to polynucleotide phosphate concentration for binding affinity to calf thymus DNA; type: nucleic-acid assay; conditions: Bos taurus
[14] = system: Calf thymus DNA; test: Binding affinity to calf thymus DNA assessed as change in melting temperature at compound to calf thymus DNA polynucleotide ratio of 0.5 by spectrophotometric analysis; type: nucleic-acid assay; conditions: Bos taurus
[15] = system: Poly(dA-dU)oligonucleotide; test: Binding affinity to polyA-polyU dsRNA (unknown origin) assessed as change in melting temperature at 0.3 ratio of compound to RNA by spectrophotometric analysis; type: nucleic-acid assay
[16] = system: Calf thymus DNA; test: Binding affinity to calf thymus DNA by UV-vis spectrophotometric method; type: nucleic-acid assay; conditions: Bos taurus
[17] = as §1; type: nucleic-acid assay

Structure (SMILES) | ΔTm [1] [°C] | Activity [2] | Ratio [3] | Activity [4] [%] | log Ks [5] | ΔTm [6] [°C] | IC50 [7] [µM] | IC50 [8] [µM] | IC90 [8] [µM] | Activity [9] | ΔTm [10] [°C] | ΔTm [11] [°C] | Activity [12] [%] | Ratio [13] | ΔTm [14] [°C] | ΔTm [15] [°C] | log Ks [16] | Activity [17] | Activity [16]
Cl.Cl.c1cc2[nH]c(-c3ccc(Cn4cc(CCCc5cn(Cc6ccc(-c7nc8cc(C9=NCCN9)ccc8[nH]7)o6)nn5)nn4)o3)nc2cc1C1=NCCN1 | 1.6 | Active | 0.42 | 17 | 6.83 | 13.5 | 216 | 3.9 | 5.4 | Active | 13.8 | 2.7 | 32 | 0.05 | 19.1 | 1.8 | 7.62 |  | 
Cl.Cl.N=C(N)c1ccc2[nH]c(-c3ccc(Cn4cc(COc5ccc(OCc6cn(Cc7ccc(-c8nc9cc(C(=N)N)ccc9[nH]8)o7)nn6)cc5)nn4)o3)nc2c1 | 0 | Active |  | 9 |  | 9.5 | 39.6 | 1.3 | 5.6 | Active | 10.7 | 0 | 7 |  | 12.3 | 0 |  | Active | Active
Fc1ccc2[nH]c(-c3ccc(Cn4cc(COc5ccc(-c6ccc(OCc7cn(Cc8ccc(-c9nc%10cc(F)ccc%10[nH]9)o8)nn7)cc6)cc5)nn4)o3)nc2c1 |  | inactive |  | 16 |  |  |  | > 15 |  |  | 0 |  | 23 | 0.21 |  | 0 | 4 to 5 | Active | 
Cl.Cl.c1cc2[nH]c(-c3ccc(Cn4cc(COCc5cn(Cc6ccc(-c7nc8cc(C9=NCCN9)ccc8[nH]7)o6)nn5)nn4)o3)nc2cc1C1=NCCN1 | 3.5 | Active | 0.85 | 28 | 7.17 | 12.4 | 122 | 3.8 | 6 | Active | 12.7 |  | 22 | 0.89 | 12.5 | 4 | 6.23 |  | 
Cl.Cl.c1cc(OCc2cn(Cc3ccc(-c4nc5cc(C6=NCCN6)ccc5[nH]4)o3)nn2)ccc1OCc1cn(Cc2ccc(-c3nc4cc(C5=NCCN5)ccc4[nH]3)o2)nn1 | 2.7 | Active |  | 6 |  | 8.2 | 60.7 | 0.75 | 1.5 | Active | 8.9 | 0 | 11 |  | 0 | 2.2 |  | Active | Active
CC(C)NC(=N)c1ccc2[nH]c(-c3ccc(Cn4cc(COc5ccc(OCc6cn(Cc7ccc(-c8nc9cc(C(=N)NC(C)C)ccc9[nH]8)o7)nn6)cc5)nn4)o3)nc2c1.Cl.Cl | 0 | Active |  | 23 |  | 8 | 121 | 1.5 | 2.8 | Active | 11 | 0 | 11 |  | 12.2 | 0 |  | Active | Active
